From ChEMBL document CHEMBL1201862, “PubChem BioAssay data set” (2004) come the findings set out here.

SMILES strings stand for the structures.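 Assay format: 96-well plates, 48-hour exposure. Abbreviation: GI50, concentration required for 50% inhibition of growth.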 Calls of active or inactive are those of the source. Rule as the data show it: active = GI50 up to about 1.1 µM and inactive = higher. A value given as a limit tells only on which side of the number the result lay.

Some test systems named below: SK-MEL-5; MOLT-4; IGROV-1; RXF 393; OVCAR-8; U-251; HCC 2998; SNB-78; DMS-114; SW-620; SN12C; SK-MEL-2; SNB-19; M14; HT-29.
Assay in all cases: NCI anticancer screen, dose series, 48 h

Consider `COc1cc(/C=C/C(=O)c2sc(-n3nc(-c4ccccc4)cc3-c3ccccc3)nc2C)ccc1O`, for which the GI50 with SK-MEL-5 is 55.2 µM (inactive); in the assay on MOLT-4 it was 17.5 µM (inactive); in the assay with IGROV-1 it was 94.6 µM (inactive); in the assay on RXF 393 it was 13 µM (inactive); with OVCAR-8, > 100 µM (inactive); in the assay on U-251 it was > 100 µM (inactive). In addition, the GI50 in the assay with HCC 2998 is > 100 µM (inactive); with SNB-78, > 100 µM (inactive); in the assay with DMS-114, 5.35 µM (inactive); in the assay with SW-620 it was > 100 µM (inactive); in the assay with SN12C, > 100 µM (inactive); in the assay with SK-MEL-2, > 100 µM (inactive).

As for `Cc1ccc(S(=O)(=O)N2CCN(C=S)CC2)cc1`, the GI50 with SK-MEL-5, with MOLT-4, with IGROV-1, in the assay on RXF 393, in the assay on SNB-19 and in the assay on OVCAR-8 was > 100 µM (inactive) each time. For the same compound, the GI50 in the assay on M14, in the assay with U-251, with HCC 2998, in the assay with SNB-78, with HT-29 and in the assay on DMS-114 was > 100 µM (inactive) throughout. The GI50 with SW-620, with SN12C and in the assay on SK-MEL-2 was > 100 µM (inactive) in each case.

`O=C(CC1Sc2ccccc2NC1=O)Nc1cccc(Cl)c1` (stereo unspecified): the GI50 with SK-MEL-5 was 40.1 µM (inactive); with MOLT-4, 15.9 µM (inactive); in the assay with IGROV-1 it was 40.9 µM (inactive); in the assay on RXF 393, 33.3 µM (inactive); in the assay on SNB-19, 46.9 µM (inactive); in the assay with OVCAR-8 it was 26.2 µM (inactive). For the same compound, the GI50 in the assay with M14 is 38.3 µM (inactive); in the assay with U-251, 30.4 µM (inactive); in the assay on HCC 2998, 89.3 µM (inactive); with SNB-78, 47.9 µM (inactive); in the assay with HT-29, 57.3 µM (inactive); in the assay on DMS-114 it was 34.2 µM (inactive). In addition, the GI50 in the assay on SW-620 is 34.4 µM (inactive); in the assay with SN12C it was 48.2 µM (inactive); in the assay with SK-MEL-2 it was 39 µM (inactive).

Regarding `COC(=O)CCC(=O)Nc1cccc(C(F)(F)F)c1`, the GI50 with SK-MEL-5, in the assay with MOLT-4, in the assay with IGROV-1, in the assay on RXF 393, in the assay on SNB-19 and with OVCAR-8 was > 100 µM (inactive) in each case. The GI50 in the assay on M14, with U-251, in the assay with HCC 2998, in the assay on SNB-78, in the assay on HT-29 and with DMS-114 was > 100 µM (inactive) throughout. In addition, the GI50 in the assay with SW-620, in the assay on SN12C and with SK-MEL-2 was > 100 µM (inactive) throughout.

Regarding `CN1C(=O)C2C=CC1C1CCC2N(C)C1=O` (stereo unspecified), the GI50 with SK-MEL-5, with MOLT-4, in the assay with IGROV-1, in the assay on RXF 393, in the assay with SNB-19 and in the assay with OVCAR-8 was > 100 µM (inactive) throughout. Besides, the GI50 with M14, with U-251, in the assay with HCC 2998, in the assay on SNB-78, in the assay on HT-29 and with DMS-114 was > 100 µM (inactive) each time. The GI50 in the assay with SW-620, in the assay on SN12C and in the assay with SK-MEL-2 was > 100 µM (inactive) each time.

For `CC[C@@H](C)[C@@H]1NC(=O)C(C(C)=O)=C1O`, the GI50 in the assay on SK-MEL-5 is 15.6 µM (inactive); in the assay with MOLT-4, 11.4 µM (inactive); with IGROV-1, 25.6 µM (inactive); in the assay on RXF 393 it was 26.7 µM (inactive); in the assay with SNB-19 it was 0.297 µM (active); in the assay on OVCAR-8, 24.9 µM (inactive). Also, the GI50 with M14 was 17.1 µM (inactive); with U-251, 18.8 µM (inactive); in the assay on HCC 2998, 30.8 µM (inactive); in the assay on SNB-78 it was 23.3 µM (inactive); in the assay with HT-29 it was 32.1 µM (inactive); in the assay with DMS-114, 31.8 µM (inactive). Moreover, the GI50 in the assay on SW-620 is 24.2 µM (inactive); in the assay with SN12C it was 25.1 µM (inactive); in the assay with SK-MEL-2, 15.3 µM (inactive).

As to `Cn1c(=O)cc2[nH]c3ccccc3n2c1=O`, the GI50 in the assay with SK-MEL-5 was > 100 µM (inactive); with MOLT-4, > 100 µM (inactive); in the assay with IGROV-1, > 100 µM (inactive); with RXF 393, 28.8 µM (inactive); in the assay with SNB-19, > 100 µM (inactive); in the assay with OVCAR-8 it was 43.8 µM (inactive). The GI50 is 72.9 µM (inactive) with M14; 16.2 µM (inactive) in the assay with U-251; 72.8 µM (inactive) in the assay with HCC 2998; 86.5 µM (inactive) in the assay on SNB-78; 49.3 µM (inactive) with HT-29; > 100 µM (inactive) in the assay on DMS-114. The GI50 with SW-620 is 22.7 µM (inactive); in the assay on SN12C it was > 10 µM (inactive); with SK-MEL-2, > 100 µM (inactive).

As to `NC1CCC[C@H]1O` (stereo partly specified), the GI50 with SK-MEL-5, in the assay with MOLT-4, with IGROV-1, with RXF 393, in the assay with SNB-19 and in the assay with OVCAR-8 was > 100 µM (inactive) in each case. Further, the GI50 with M14, with U-251, in the assay on HCC 2998, in the assay with SNB-78, in the assay with HT-29 and in the assay with DMS-114 was > 100 µM (inactive) each time. The GI50 with SW-620, in the assay with SN12C and in the assay with SK-MEL-2 was > 100 µM (inactive) throughout.

With `COC(=O)[C@@]1(C(C)CC(=O)O)CCCCC1=O` (stereo partly specified), the GI50 in the assay with SK-MEL-5, with MOLT-4, in the assay with IGROV-1, with RXF 393, with SNB-19 and in the assay on OVCAR-8 was > 100 µM (inactive) throughout. Besides, the GI50 in the assay on M14 is > 100 µM (inactive); in the assay on U-251 it was > 100 µM (inactive); in the assay with HCC 2998 it was > 100 µM (inactive); with SNB-78, > 100 µM (inactive); with HT-29, > 100 µM (inactive); with DMS-114, 82.8 µM (inactive). For the same compound, the GI50 with SN12C and with SK-MEL-2 was > 100 µM (inactive) throughout.

In the case of `Cn1cnc([N+](=O)[O-])c1Sc1nc2ccccc2o1`, the GI50 was 13.3 µM (inactive) in the assay with SK-MEL-5; 2.52 µM (inactive) with MOLT-4; 13.2 µM (inactive) in the assay with IGROV-1; 8.91 µM (inactive) in the assay on RXF 393; 17.7 µM (inactive) with SNB-19; 2.82 µM (inactive) in the assay with OVCAR-8. The GI50 was 6.35 µM (inactive) in the assay on M14; 12.6 µM (inactive) with U-251; 11 µM (inactive) in the assay with HCC 2998; 13.1 µM (inactive) in the assay on SNB-78; 3.44 µM (inactive) with HT-29; 2.14 µM (inactive) in the assay with DMS-114. Besides, the results for the GI50 with SW-620, with SN12C and with SK-MEL-2 were 3.72 µM (inactive), 6.78 µM (inactive) and 28.1 µM (inactive), respectively.
